Data on four compounds can be found in article PMC4697807, “Novel Zn^2+ Modulated GPR39 Receptor Agonists Do Not Drive Acute Insulin Secretion in Rodents” (PLoS ONE, 2015).

Common to all, as to assay type: cell-based
The target of one assay is T1, rGPR39 (Rattus norvegicus, UniProt A0A8J8Y1V6).
T1 sequence (A0A8J8Y1V6 1-456): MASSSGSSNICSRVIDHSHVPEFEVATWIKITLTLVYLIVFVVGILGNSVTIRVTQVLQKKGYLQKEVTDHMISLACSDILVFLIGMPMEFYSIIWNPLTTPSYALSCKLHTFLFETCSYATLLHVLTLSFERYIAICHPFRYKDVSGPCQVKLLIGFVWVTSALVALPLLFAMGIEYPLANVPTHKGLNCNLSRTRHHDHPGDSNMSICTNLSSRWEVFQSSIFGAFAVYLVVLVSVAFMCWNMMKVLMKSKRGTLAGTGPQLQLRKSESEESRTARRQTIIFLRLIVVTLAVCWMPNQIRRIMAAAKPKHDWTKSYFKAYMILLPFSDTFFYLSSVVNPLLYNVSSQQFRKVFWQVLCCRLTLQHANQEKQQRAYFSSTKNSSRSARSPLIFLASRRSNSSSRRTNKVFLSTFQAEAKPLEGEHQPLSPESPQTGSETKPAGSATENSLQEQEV
The experiment in a line: DMR label-free assay, HEK293s cells transfected with rat GPR39. The source says:
(§1) Full length human (AF034633), rat (DM091294) and mouse (BC085285) GPR39 (GeneArt–Life Technologies, Carlsbad, CA) were subcloned into the pIRESneo3 vector (Clontech, Mountain View, CA). The resulting expression vectors hGPR39-, rGPR39- and mGPR39-pIRESneo3 were transfected into HEK293s cells (ATCC CRL-1573) using Lipofectamine 2000 (Life Technologies). Individual clones were isolated using flow cytometry with a FACSVantage SE DIVA (Becton Dickinson, Franklin Lakes, NJ) and clones were chosen based on responses to Zn^2+ measured in a cAMP assay (see below). […] HEK293s-derived cell lines were cultured at 37°C, 10% CO2 and 95% humidity in DMEM supplemented with 10% FBS and 600 μg/ml Geneticin (Life Technologies). The mouse pancreas epithelial cell line NIT-1 (ATCC CRL-2055) with endogenous expression of GPR39 was cultured at 37°C, 5% CO2, and 95% humidity in Ham´s F12 (Life Technologies) supplemented with 10% FBS.
DMR assays were performed using an Epic instrument (Corning Inc., Corning, NY). 12,000 cells per well were cultured for 24 h in 384-well fibronectin-coated Epic biosensor plates (Corning). On the day of experiment, culture medium was removed and replaced with 30 μl buffer A (HBSS, HEPES 20 mM pH7.4, 1% DMSO, 0.01% BSA) using an EL406 (Bio-Tek). Plates were incubated at 26 °C for 1 h inside the Epic to allow for temperature equilibration. A baseline was read for 2 min, and then 15 μl compounds in buffer A were added using a CyBi-Well vario (CyBio) and DMR was detected during 45 min.
(§2) Concentration response data were fitted with a four parameter logistic fit using Eq 1, y=A+((B−A)/1+((C/x)^D))) (1) where A is no activation, B is full activation, C is the EC50 and D is the Hill slope.

The next assay concerns the target T2, GPR39 (NIT-1 cells) (Mus musculus, UniProt Q5U431).
T2 construct: NIT-1 cells endogenously expressing GPR39; endogenous in cells; host or cells: NIT-1 (ATCC CRL-2055)
T2 sequence (Q5U431 1-456): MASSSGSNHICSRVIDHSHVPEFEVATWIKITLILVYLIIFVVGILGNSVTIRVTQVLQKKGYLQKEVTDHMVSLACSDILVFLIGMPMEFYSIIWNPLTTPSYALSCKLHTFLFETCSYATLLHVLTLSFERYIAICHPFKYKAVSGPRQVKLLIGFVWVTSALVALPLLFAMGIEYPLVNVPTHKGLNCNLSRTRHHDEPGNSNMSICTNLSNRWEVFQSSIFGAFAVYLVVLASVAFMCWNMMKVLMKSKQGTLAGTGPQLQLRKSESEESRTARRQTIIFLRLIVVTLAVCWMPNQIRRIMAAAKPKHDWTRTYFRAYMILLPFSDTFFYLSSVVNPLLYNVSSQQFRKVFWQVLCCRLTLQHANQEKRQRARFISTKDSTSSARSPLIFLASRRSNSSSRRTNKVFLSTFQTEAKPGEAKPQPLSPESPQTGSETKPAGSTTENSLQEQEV
The experiment in a line: IP1 assay in NIT-1 cells endogenously expressing GPR39. The settings on record: for Emax: read-out: Emax relative to the 100% efficacy reference AZ1395.
From the text: as §1
(§3) IP1 assays were performed using IP-One Tb kits (CisBio). IP1 production was detected by HTRF as described above. Buffers and reagents were according to manufacturers’ protocols except LiCl concentrations in stimulation buffer which were 50 mM in assays employing HEK293s-hGPR39 cells and 20 mM in assays using NIT-1 cells. For assays using HEK293s-hGPR39 cells, 12,500 cells per well were dispensed into small-volume 384-well plates (Greiner) and IP1 production was stimulated in the presence of compounds for 30 min at 37 °C in a total volume of 20 μl. For assays using NIT-1 cells, 25,000 cells per well were seeded into poly-D-lysine coated 384-well plates (Becton-Dickinson) and cultured in Ham´s F12 medium with 10% FBS. After 48 h, cells were washed with stimulation buffer and IP1 production stimulated in the presence of compounds for 45 min at 37 °C in a total volume of 60 μl.
as §2

For another assay, the target named is T3, GPR39 (Homo sapiens, UniProt O43194).
T3 sequence (O43194 1-453): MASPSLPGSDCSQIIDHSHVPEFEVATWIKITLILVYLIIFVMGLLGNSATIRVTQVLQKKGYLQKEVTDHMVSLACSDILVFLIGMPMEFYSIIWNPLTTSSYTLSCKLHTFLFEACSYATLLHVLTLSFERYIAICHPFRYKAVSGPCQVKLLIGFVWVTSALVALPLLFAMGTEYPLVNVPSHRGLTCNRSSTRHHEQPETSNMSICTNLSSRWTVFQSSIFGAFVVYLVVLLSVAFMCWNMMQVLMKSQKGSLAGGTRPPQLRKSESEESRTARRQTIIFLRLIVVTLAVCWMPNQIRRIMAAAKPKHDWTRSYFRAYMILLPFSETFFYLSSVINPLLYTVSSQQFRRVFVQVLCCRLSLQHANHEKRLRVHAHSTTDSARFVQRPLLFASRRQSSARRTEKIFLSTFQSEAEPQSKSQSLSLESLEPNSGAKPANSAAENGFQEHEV
The experiment in a line: IP1 assay (HTRF), HEK293s-hGPR39 cells. On the set-up: Full length human (AF034633), rat (DM091294) and mouse (BC085285) GPR39; expressed in transfected cells; host or cells: HEK293s (ATCC CRL-1573), pIRESneo3 vector, selected clones. The settings on record: for Efficacy at 33 μM: AZ1395 100% reference.
From the text: as §1, §3, §2

[1] abbreviates: absence (w/o) of Zn^2+, read-out: EC50.
Where [2] appears, read: absence (w/o) of Zn^2+, read-out: pEC50 ± SD (converted).
The mark [3] stands for this setting: presence of 5 μM Zn^2+, read-out: EC50.
The mark [4] stands for this setting: presence of 5 μM Zn^2+, read-out: pEC50 ± SD (converted).
Where [5] appears, read: Zn^2+ by itself, read-out: EC50.

Where two headings read alike, the source gives them in different places.

On to `N#Cc1ccc(OCCn2ccnc2)c(OCCn2ccnc2)c1` [AZ1395, 3,4-bis-(2-imidazol-1-ylethoxy)-benzonitrile], for which the EC50 at rGPR39 (setting [1]) was 5100 nM; at rGPR39 (setting [2]), 5130 nM; on rGPR39 (setting [3]), 33 nM; on rGPR39 (setting [4]) it was 33.1 nM; at GPR39 (NIT-1 cells) (setting [1]), over 33000 nM; at GPR39 (NIT-1 cells) (setting [3]), over 33000 nM. For the same compound, the EC50 was 2880 nM on GPR39 (setting [2]) and 19.1 nM on GPR39 (setting [4]). The “Efficacy at 33 μM” value at GPR39 (NIT-1 cells) (absence (w/o) of Zn^2+) came out at 0%; on GPR39 (NIT-1 cells) (presence of 5 μM Zn^2+) it was 100%.

As to `Cc1nc2c(C(=O)O)cnn2c(O)c1Cc1ccc(Cl)cc1` [AZ4237, 6-[(4-chlorophenyl)methyl]-7-hydroxy-5-methyl-pyrazolo[1,5-a]pyrimidine-3-carboxylic acid], the EC50 on rGPR39 (setting [1]) is over 33000 nM; on rGPR39 (setting [3]) it was 150 nM; at rGPR39 (setting [4]), 148 nM; on GPR39 (NIT-1 cells) (setting [1]) it was over 33000 nM; at GPR39 (NIT-1 cells) (setting [4]), 240 nM; on GPR39 (setting [1]), over 33000 nM. In addition, the EC50 on GPR39 (setting [4]) is 33.9 nM. For the same compound, the figures for the “Efficacy at 33 μM” value on GPR39 (NIT-1 cells) (absence (w/o) of Zn^2+) and on GPR39 (absence (w/o) of Zn^2+) were 8% and 66%, respectively. The Emax (commonly the maximal effect, on the per cent scale that the assay sets) at GPR39 (NIT-1 cells) (presence of 5 μM Zn^2+) is 50%.

Consider `Cc1nc(-c2nc3c(c(=O)[nH]2)CN(C(=O)c2cccc(Cl)c2F)CC3)cs1` [AZ7914, 6-(3-chloro-2-fluoro-benzoyl)-2-(2-methylthiazol-4-yl)-3,5,7,8-tetrahydropyrido-[4,3-d]pyrimidin-4-one], for which the EC50 is 7400 nM on rGPR39 (setting [1]); 150 nM at rGPR39 (setting [3]); 148 nM on rGPR39 (setting [4]); over 33000 nM on GPR39 (NIT-1 cells) (setting [1]); 650 nM on GPR39 (NIT-1 cells) (setting [3]); over 33000 nM at GPR39 (setting [1]). Besides, the EC50 at GPR39 (setting [3]) was determined as 74 nM. Further, the “Efficacy at 33 μM” value is recorded as 9% on GPR39 (NIT-1 cells) (absence (w/o) of Zn^2+) and 45% at GPR39 (absence (w/o) of Zn^2+). Further, on GPR39 (NIT-1 cells) (presence of 5 μM Zn^2+), the maximum response (Emax) is 47%.

For `[Zn+2]` [Zn^2+], on GPR39 (NIT-1 cells) (Zn^2+ by itself), the “Efficacy at 33 μM” value is reported as 0% and the agonistic effects entry is given as “no agonistic effects”. Moreover, the EC50 at GPR39 (NIT-1 cells) (setting [5]) is over 33000 nM. In addition, the “pEC50 ± SD” value on GPR39 (Zn^2+ by itself) is given as “(4.63 ± 0.08)”. For the same compound, the EC50 at GPR39 (setting [5]) came out at 24000 nM.
